Assay [1] addresses T1, 3-oxo-5-alpha-steroid 4-dehydrogenase 1 (Homo sapiens, UniProt P18405).
T1 sequence (P18405 whole entry): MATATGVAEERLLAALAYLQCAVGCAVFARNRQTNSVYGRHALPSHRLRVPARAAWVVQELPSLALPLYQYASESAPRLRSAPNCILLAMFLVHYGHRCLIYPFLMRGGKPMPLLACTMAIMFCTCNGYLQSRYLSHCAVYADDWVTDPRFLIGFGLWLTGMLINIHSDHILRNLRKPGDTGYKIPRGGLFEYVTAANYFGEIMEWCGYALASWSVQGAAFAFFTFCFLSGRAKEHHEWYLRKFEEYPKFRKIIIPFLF
The assay is described as follows: Inhibition of steroid 5-alpha reductase type 1 expressed in HEK 293 cells. It is filed as cell-based, HEK293.

Assay [2] deals with T2, 3-oxo-5-alpha-steroid 4-dehydrogenase 2 (Homo sapiens, UniProt P31213).
T2 sequence (P31213 whole entry): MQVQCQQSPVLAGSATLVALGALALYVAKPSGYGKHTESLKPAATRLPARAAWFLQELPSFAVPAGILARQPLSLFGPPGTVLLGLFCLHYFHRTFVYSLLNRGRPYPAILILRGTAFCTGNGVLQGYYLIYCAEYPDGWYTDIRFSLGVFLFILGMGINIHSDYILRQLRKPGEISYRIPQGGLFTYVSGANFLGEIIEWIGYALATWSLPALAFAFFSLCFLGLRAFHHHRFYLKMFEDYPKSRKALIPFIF
The assay is described as follows: Inhibition of steroid 5-alpha reductase type 2 expressed in HEK 293 cells. It is filed as cell-based, HEK293.

For assay [3], the target named is T3, 3-oxo-5-alpha-steroid 4-dehydrogenase 1 (Homo sapiens) (UniProt P18405).
T3 sequence (whole entry): T1 sequence (P18405 whole entry)
The assay can be described thus: Inhibition of steroid 5-alpha reductase type 1 expressed in HEK 293 cells at 10 uM. It is filed as cell-based. The following applies: HEK293.

Assay [4] has as its target T4, 3-oxo-5-alpha-steroid 4-dehydrogenase 2 (Homo sapiens) (UniProt P31213).
T4 sequence (whole entry): T2 sequence (P31213 whole entry)
The assay is described as follows: Inhibition of steroid 5-alpha reductase type 2 expressed in HEK 293 cells at 10 uM. The note with it: HEK293. It is filed as cell-based.

Structures are written as SMILES.

The term IC50 denotes the point on the concentration scale where inhibition reaches its midpoint. On to `CC(C)(C)NC(=O)[C@H]1CC[C@H]2[C@@H]3CC[C@H]4NC(=O)C=C[C@]4(C)[C@H]3CC[C@]12C` [FINASTERIDE], for which the IC50 stood at 453 nM in assay [1] and 25 nM in assay [2].

The inhibition is the percentage by which the read-out fell short of the control. In assay [3], `CC(C)NC(=O)COc1ccc(-c2ccc(=O)n(C)c2)cc1` yielded an inhibition of 8%.

With `CC(C)N(C(=O)COc1ccc(C2CCC(=O)N(C)C2)cc1)C(C)C` (stereo unspecified), the inhibition in assay [3] stood at 6%.

`C=CCNC(=O)COc1ccc(-c2ccc(=O)n(C)c2)cc1`: the inhibition in assay [3] amounted to 6%.

As to `CC(=O)SCCCCCCCCCCCCCCCC(=O)NCCOCCOC(=O)CC/C=C/CNC(=O)COc1ccc(-c2ccc(=O)n(C)c2)cc1`, in assay [3], the inhibition came out at 33%.

The compound `Cn1cc(-c2ccc(C(=O)Cc3ccccc3)cc2)ccc1=O` registered an inhibition in assay [3] of 61%.

With `C=CCNC(=O)COc1ccc(N2C=CC(=O)CC2C)cc1` (stereo unspecified), the inhibition in assay [4] was determined as 12%; in assay [3], 8%.

`CC(=O)SCCCCCCCCCCCCCCCC(=O)NCCOC(=O)CC/C=C/CNC(=O)COc1ccc(-c2ccc(=O)n(C)c2)cc1` gave an inhibition in assay [3] of 43%.

With `CC1CC(=O)C=CN1c1ccc(OCC(=O)N(C(C)C)C(C)C)cc1` (stereo unspecified), in assay [3], the inhibition was found to be 3%.

The record behind these values is ChEMBL document CHEMBL1148877, “Evaluation of 4'-substituted bicyclic pyridones as non-steroidal inhibitors of steroid 5alpha-reductase” (Bioorg Med Chem Lett, 2007).
